In patent US4504478A, “Cephalosporin-1-oxide derivatives” (Imperial Chemical Industries PLC, priority 1982, dated 1985):

Key:
Assay in all cases: MIC by agar-dilution, in vitro antibacterial test
Format in all cases: cell-based
[1] = system: Salmonella dublin; conditions: Code No. A20, Jewell and Pearmain agar medium, inoculum ~10^5 CFU
Source text: (§1) As noted above the cephalosporin derivative of the invention has antibacterial properties, having a broad spectrum of activity in vitro against standard laboratory microorganisms, both Gram-negative and Gram-positive, which are used to screen for activity against pathogenic bacteria. The antibacterial spectrum and potency of a particular compound may be determined in a standard test system.
(§2) The results set out in the following Table of the compound described in Example 1 are illustrative of the biological activity of the compounds of the present invention. The results are those obtained on a standard in vitro test system using Jewell and Pearmain agar medium. The antibacterial activity is described in terms of the minimum inhibitory concentration (MIC) determined by agar - dilution technique with an inoculum size of ~10^5 CFU.

[2] = system: Serratia marescens; conditions: Code No. A16, Jewell and Pearmain agar medium, inoculum ~10^5 CFU
Source text: as §1, §2

[3] = system: Strep. pyrogenes; conditions: Code No. A1, Jewell and Pearmain agar medium, inoculum ~10^5 CFU
Source text: as §1, §2

[4] = system: Proteus mirabilis; conditions: Code No. A18, Jewell and Pearmain agar medium, inoculum ~10^5 CFU
Source text: as §1, §2

[5] = system: Staph. aureus; conditions: Code No. A6, Jewell and Pearmain agar medium, inoculum ~10^5 CFU
Source text: as §1, §2

[6] = system: K. aerogenes; conditions: Code No. A10, Jewell and Pearmain agar medium, inoculum ~10^5 CFU
Source text: as §1, §2

[7] = system: E. coli; conditions: Code No. A8, Jewell and Pearmain agar medium, inoculum ~10^5 CFU
Source text: as §1, §2

[8] = system: Ps. aeruginosa; conditions: Code No. A21, Jewell and Pearmain agar medium, inoculum ~10^5 CFU
Source text: as §1, §2

[9] = system: Ent. cloacae; conditions: Code No. A13, Jewell and Pearmain agar medium, inoculum ~10^5 CFU
Source text: as §1, §2

## CC(=O)OCC1=C(C(=O)O)N2C(=O)C(Nc3ncc[nH]3)C2[S+]([O-])C1.O=C(O)C(F)(F)F (stereo not drawn) [Example 1, 3-acetoxymethyl-7-(imidazol-2-yl)aminoceph-3-em-1β-oxide-4-carboxylicacid trifluoroacetate]
[1]
  minimum inhibitory concentration (MIC): 1 µg/mL
[2]
  minimum inhibitory concentration (MIC): 64 µg/mL
[3]
  minimum inhibitory concentration (MIC): 64 µg/mL
[4]
  minimum inhibitory concentration (MIC): > 128 µg/mL
[5]
  minimum inhibitory concentration (MIC): > 128 µg/mL
[6]
  minimum inhibitory concentration (MIC): 4 µg/mL
[7]
  minimum inhibitory concentration (MIC): 2 µg/mL
[8]
  minimum inhibitory concentration (MIC): > 128 µg/mL
[9]
  minimum inhibitory concentration (MIC): 2 µg/mL
